Among the data in patent US12630529B2, “GCN2 modulator compounds” (ALESTA THERAPEUTICS BV, priority 2020, dated 2026) are IC50 values, retold here.

Molecules are shown by their SMILES.

The target of test [1] is T1, GCN2 (Mus musculus, UniProt Q9QZ05).
T1 construct: endogenous in cells; host or cells: Neuro 2a (N2a)
Briefly: GCN2 inhibition cell-based assay (P-GCN2 Western blot in Neuro 2a cells). Conditions: amino acid deprived media (DMEM lacking L-cysteine and methionine), 3 hours.

Test [2] addresses GCN2 (Homo sapiens, UniProt Q9P2K8). Briefly: GCN2 enzyme inhibition assay (Reaction Biology EIF2AK4/GCN2 kinase assay). The class given is biochemical. More on the design: purchased Reaction Biology Corp. Conditions: human GCN2 enzyme activity, 10 μM ATP, 20 μM peptide substrate. As to the method: In order to validate the above results, human GCN2 enzyme activity was measured in Reaction Biology Corp (EIF2AK4/GCN2 kinase assay). Compounds were tested in 5-dose IC50 mode for non-active compounds and 10-dose IC50 mode for active compounds with 3-fold serial dilution starting at 30 μM and 0.1 μM respectively. Control compound Staurosporine was tested in 10-dose IC50 mode with 4-fold serial dilution starting at 20 μM. Reactions were carried out at 10 μM ATP using 20 μM peptide substrate [GRSRSRSRSR]. For IC50 values: +++ refers to <10 nM of test compound; ++ refers to 10 nM to 100 nM of test compound; + refers to 100 nM to 1,000 nM of test compound and − refers to >1,000 nM of test compound.

GCN2 (Homo sapiens, UniProt Q9P2K8), sequence (Q9P2K8 whole entry): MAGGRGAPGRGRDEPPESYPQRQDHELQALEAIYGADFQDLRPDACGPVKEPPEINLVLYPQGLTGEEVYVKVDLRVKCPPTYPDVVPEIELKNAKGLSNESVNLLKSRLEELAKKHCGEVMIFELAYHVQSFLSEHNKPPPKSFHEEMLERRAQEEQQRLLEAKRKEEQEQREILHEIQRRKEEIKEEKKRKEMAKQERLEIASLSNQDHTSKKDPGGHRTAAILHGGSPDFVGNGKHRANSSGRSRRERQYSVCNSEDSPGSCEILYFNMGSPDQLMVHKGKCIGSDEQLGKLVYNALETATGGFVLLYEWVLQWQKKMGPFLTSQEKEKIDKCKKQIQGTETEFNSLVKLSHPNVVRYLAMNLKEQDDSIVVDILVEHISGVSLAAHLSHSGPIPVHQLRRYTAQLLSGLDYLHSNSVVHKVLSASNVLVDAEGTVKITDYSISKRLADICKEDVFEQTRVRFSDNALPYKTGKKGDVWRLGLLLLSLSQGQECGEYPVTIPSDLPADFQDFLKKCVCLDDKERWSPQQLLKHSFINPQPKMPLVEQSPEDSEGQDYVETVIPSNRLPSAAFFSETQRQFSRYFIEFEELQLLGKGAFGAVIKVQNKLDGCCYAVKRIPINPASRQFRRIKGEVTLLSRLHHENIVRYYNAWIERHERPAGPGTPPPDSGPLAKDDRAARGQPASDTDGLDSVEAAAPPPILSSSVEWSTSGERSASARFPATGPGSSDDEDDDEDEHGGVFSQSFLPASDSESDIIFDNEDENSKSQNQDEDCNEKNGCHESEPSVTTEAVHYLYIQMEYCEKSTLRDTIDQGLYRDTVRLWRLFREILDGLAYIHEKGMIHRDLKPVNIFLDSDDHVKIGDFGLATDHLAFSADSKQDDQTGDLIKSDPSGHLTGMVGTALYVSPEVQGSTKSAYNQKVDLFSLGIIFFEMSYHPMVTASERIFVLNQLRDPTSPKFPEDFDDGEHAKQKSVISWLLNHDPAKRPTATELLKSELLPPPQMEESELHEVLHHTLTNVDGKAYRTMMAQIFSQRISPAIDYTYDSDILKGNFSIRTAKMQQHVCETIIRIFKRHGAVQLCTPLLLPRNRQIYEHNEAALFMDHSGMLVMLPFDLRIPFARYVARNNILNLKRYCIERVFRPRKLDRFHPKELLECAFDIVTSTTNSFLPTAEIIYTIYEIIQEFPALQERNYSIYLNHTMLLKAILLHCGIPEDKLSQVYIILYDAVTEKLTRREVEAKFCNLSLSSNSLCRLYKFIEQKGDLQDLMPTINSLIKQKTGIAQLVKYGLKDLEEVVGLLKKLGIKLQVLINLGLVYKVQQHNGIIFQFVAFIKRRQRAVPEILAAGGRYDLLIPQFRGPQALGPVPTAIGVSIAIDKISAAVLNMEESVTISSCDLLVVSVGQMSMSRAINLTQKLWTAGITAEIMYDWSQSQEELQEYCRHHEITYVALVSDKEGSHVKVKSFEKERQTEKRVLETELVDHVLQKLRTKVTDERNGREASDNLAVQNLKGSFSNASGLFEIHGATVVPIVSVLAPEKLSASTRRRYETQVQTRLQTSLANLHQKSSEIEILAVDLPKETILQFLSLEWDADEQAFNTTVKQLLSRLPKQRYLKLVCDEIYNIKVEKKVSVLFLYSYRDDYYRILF
T1 sequence (Q9QZ05 whole entry): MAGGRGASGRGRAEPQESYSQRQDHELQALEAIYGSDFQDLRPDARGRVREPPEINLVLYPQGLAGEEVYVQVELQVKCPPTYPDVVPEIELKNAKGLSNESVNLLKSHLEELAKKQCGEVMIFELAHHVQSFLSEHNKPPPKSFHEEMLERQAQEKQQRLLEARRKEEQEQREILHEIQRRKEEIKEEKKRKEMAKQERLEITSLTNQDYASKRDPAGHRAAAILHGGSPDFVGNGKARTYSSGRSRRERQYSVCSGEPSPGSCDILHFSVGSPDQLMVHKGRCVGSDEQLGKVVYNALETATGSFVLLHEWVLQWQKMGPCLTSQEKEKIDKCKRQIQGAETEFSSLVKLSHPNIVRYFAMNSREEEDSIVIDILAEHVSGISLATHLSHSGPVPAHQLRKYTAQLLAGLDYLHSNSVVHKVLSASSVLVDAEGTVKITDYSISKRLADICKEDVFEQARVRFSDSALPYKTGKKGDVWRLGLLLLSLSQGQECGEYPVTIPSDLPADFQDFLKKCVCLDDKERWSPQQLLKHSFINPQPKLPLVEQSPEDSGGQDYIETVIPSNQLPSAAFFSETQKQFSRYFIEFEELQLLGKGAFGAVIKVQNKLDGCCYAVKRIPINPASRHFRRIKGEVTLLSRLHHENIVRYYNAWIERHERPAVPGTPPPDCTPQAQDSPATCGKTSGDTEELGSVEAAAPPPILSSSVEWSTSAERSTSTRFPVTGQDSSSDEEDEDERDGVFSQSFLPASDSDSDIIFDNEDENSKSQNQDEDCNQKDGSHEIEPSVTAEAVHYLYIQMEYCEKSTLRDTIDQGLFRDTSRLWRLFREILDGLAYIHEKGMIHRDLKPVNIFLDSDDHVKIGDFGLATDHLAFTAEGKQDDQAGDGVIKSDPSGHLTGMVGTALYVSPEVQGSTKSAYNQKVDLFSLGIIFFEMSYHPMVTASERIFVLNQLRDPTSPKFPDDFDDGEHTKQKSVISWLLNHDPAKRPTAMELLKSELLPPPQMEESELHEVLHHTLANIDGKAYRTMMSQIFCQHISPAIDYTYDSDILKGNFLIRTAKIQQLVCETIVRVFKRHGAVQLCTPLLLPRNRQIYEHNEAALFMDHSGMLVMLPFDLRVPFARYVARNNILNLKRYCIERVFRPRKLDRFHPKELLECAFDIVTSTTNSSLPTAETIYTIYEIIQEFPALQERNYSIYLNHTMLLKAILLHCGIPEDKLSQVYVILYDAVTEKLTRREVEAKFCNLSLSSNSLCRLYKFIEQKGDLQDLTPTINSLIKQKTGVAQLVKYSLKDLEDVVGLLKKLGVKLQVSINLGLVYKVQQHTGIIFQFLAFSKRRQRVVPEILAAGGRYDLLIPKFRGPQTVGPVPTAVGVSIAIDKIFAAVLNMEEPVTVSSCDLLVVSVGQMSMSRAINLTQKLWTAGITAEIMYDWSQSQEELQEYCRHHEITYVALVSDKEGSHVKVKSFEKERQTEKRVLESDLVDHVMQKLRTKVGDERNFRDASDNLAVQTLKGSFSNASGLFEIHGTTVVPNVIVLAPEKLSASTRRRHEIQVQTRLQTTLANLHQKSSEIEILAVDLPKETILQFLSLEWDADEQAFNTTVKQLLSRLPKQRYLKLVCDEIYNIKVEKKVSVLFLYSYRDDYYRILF

Turning to `Nc1ncc2cc(-c3c(F)ccc(NS(=O)(=O)c4cc(Cl)ccc4Cl)c3F)ccc2n1` [Compound 2], the half-inhibitory concentration (IC50) against GCN2 [1] and on GCN2 [2] was < 10 nM in each case.
For the compound `COc1ncc(Cl)cc1S(=O)(=O)Nc1ccc(F)c(-c2ccc3nc(N)ncc3c2)c1F` [Compound 1], the results for the IC50 at GCN2 [1] and against GCN2 [2] were < 10 nM and 10 to 100 nM, respectively.
